Laboratory results published in patent US9982021B2, “Composition for dissolving thrombi, and a pharmaceutical composition for treating stenotic or occlusive vascular diseases which comprises the same” (INDUSTRY-ACADEMIC COOPERATION FOUNDATION, YONSEI UNIVERSITY, priority 2010, dated 2018).
“Also recorded” adds a separate entry of the source.

Legend:
[1] = test system: mouse PRP (platelet rich plasma); experiment: In vitro platelet aggregation assay (ADP, Aggregometer); type: cell-based; settings: for IC50: ADP, mouse PRP, read-out: IC50 platelet aggregation inhibition
Excerpt: Saxatilin derivatives and ADP were administrated to mouse PRP (platelet rich plasma) and measured aggregation level using Aggregometer (CHRONO-LOG, USA) to evaluate activity of the present saxatilin derivatives (Table 1).

[2] = test system: FeCl3-induced carotid thrombus; experiment: Intravenous thrombolysis in FeCl3-induced carotid artery thrombosis model (carotid blood flow); type: in vivo, ICR mice
Method: 8-week-old male ICR (Institute of Cancer Research) mice (OrientBio) were used. The care and use of laboratory animals were performed according to institutionally approved protocol in accordance with the National Institutes of Health's Guide for the care and use of laboratory animals. For operative procedures, the animals were anesthetized with an inhalation of 5% isoflurane in a mixture of 70% N2O and 30% O2. Anesthesia was maintained with 2% isoflurane. During the operative procedures, body temperature was monitored continuously with a rectal probe and was maintained at 37.0±0.2° C. by means of a homeothermic blanket control unit and heating pad (Harvard Apparatus, Holliston, Mass.). To test the thrombolytic activity of r-saxatilin in vivo, FeCl3 (Sigma Aldrich, USA)-induced carotid thrombus model was utilized. A midline cervical incision was made, and the left common carotid artery was carefully dissected under a surgical microscope. An ultrasonic Doppler flow probe (Transonic MA0.7PSB) was placed around midportion of the common carotid artery (CCA). Carotid blood flow was obtained with a Transonic TS420 Blood Flow Meter (Transonic Instruments, Ithaca, N.Y.) and iWorx IX-304T data acquisition system (iWorx Systems, Inc., Dover, N.H.). The control baseline flow of the CCA was measured for 5 minutes. After the determination of the control baseline flow, the probe was removed. Oxidative vascular injury with chemical stress was induced by placing a filter paper (700×500 μm) saturated with 50% FeCl3 on the adventitial surface of the midpoint of the exposed CCA for 5 min. After removing the filter paper, the CCA was washed with normal saline and its blood flow was recorded. Thrombus formation and arterial occlusion were determined by decrease of blood flow and the complete occlusion was defined as absence of blood flow maintained for 10 minutes.
Ten minutes after occlusion of the CCA, r-saxatilin was administered intravenously via the left femoral vein by using an infusion pump (KD Scientific Inc., USA) connected to PE-10 tubing. The carotid blood flow was continuously monitored for 2 hours from the initial time of injection.
To evaluate dose response of r-saxatilin, the animals were randomly divided into seven groups (five mice in each group): normal saline (control group), 1, 1.75, 2.5, 3.75, 5.0, and 10.0 mg/kg of r-saxatilin administration groups. 10% of the dose was administered in bolus intravenously and the rest was infused continuously for 60 min.
Effects of r-saxatilin for thrombolysis were assessed according to administration method. For this experiment, a total dose of 5 mg/kg of r-saxatilin was used in each animal, and the animals were divided into four groups (five mice in each group): (a) bolus injection of total dose (5 mg/kg); (b) double bolus injection of r-saxatilin with a half dose (2.5 mg/kg) of r-saxatilin at 10 min after occlusion and 60 min after the first bolus injection; (c) a half dose bolus injection (2.5 mg/kg) at 10 min after occlusion, and then continuous infusion for 60 min of the remaining dose; and (d) bolus injection of 10% of the total dose (0.5 mg/kg) at 10 min after occlusion, and then continuous infusion of the remaining dose (4.5 mg/kg) for 60 min.
The presence and degree of recanalization were assessed by measuring blood flow. Data of blood flow at baseline and those monitored continuously for 2 hours after CCA occlusion were acquired by using iWorx Labscribe2 data acquisition software (version 2.045000). Immediately after 2 hours of blood flow monitoring, the CCA was obtained in all mice, fixed with 4% paraformaldehyde solution, and embedded in paraffin for histological examination. The paraffin blocks were consecutively sectioned in a transverse direction with 3 μm-thickness, mounted on a glass slide, and stained with hematoxylin and eosin.
The carotid blood flow was analyzed by the area under the flow-time curves. […]

[3] = Mortality and bleeding after the r-saxatilin treatment; type: in vivo, ICR mice; settings: 5 mg/kg bolus injection group
Excerpt: Total 51 animals were used for evaluation of thrombolytic effects of r-saxatilin.

[4] = test system: FeCl3-induced carotid thrombus; experiment: Intravenous thrombolysis in FeCl3-induced carotid artery thrombosis model (carotid blood flow); type: in vivo, ICR mice; remark: listed apart in the source
[5] = total 5 mg/kg, bolus injection of total dose

XL2: saxatilin derivative (deletion mutant), SEQ ID NO:7, expressed in Pichia (CKLRPGAQCAEGLCCDQCRFMKEGTICRMARGDDMDDYCNGISAGC; aritificially made peptide comprising Arg-Gly-Asp motif having thrombolytic activity)
IC50 [1]: 0.986 µM

saxatilin
IC50 [1]: 0.176 µM
treatment concentration giving similar level of aggregation inhibition ([1]; FIG. 6): approximately 0.7 μM
effective recanalization (blood flow >=50% of baseline maintained >30 min), mice ([2]; 1 mg/kg): No effective recanalization
blood flow, area under flow-time curve, percent of mean control baseline blood flow ([2]; 1 mg/kg i.v., 10% bolus + 60 min infusion, 2 h monitoring): 2.36±0.78%
effective recanalization, mice ([2]; 1.75 mg/kg): No effective recanalization
blood flow, area under flow-time curve, percent of mean control baseline blood flow ([2]; 1.75 mg/kg i.v., 10% bolus + 60 min infusion): 4.97±3.94%
effective recanalization, mice ([2]; 2.5 mg/kg): two of five
time to effective recanalization ([2]; 2.5 mg/kg): 32.92 ± 23.52 min
blood flow, area under flow-time curve, percent of mean control baseline blood flow ([2]; 2.5 mg/kg i.v., 10% bolus + 60 min infusion): 32.50±33.70%
effective recanalization, mice ([2]; 3.75 mg/kg): three of five
time to effective recanalization ([2]; 3.75 mg/kg): 21.75 ± 21.62 min
effective recanalization, mice ([2]; 5 mg/kg, 10% bolus + infusion): all mice
time to effective recanalization ([2]; 5 mg/kg, bolus 10% of total dose + continuous infusion): 13.92 ± 6.02 min
time to effective recanalization ([2]; 5 mg/kg, bolus injection of total dose): 2.86 ± 0.22 min
time to effective recanalization ([2]; 5 mg/kg, double bolus injection): 13.44 ± 26.31 min
time to effective recanalization ([2]; 5 mg/kg, half dose bolus and continuous infusion of other half): 19.48 ± 25.94 min
effective recanalization, mice ([2]; 10 mg/kg): all mice
time to effective recanalization ([2]; 10 mg/kg): 19.46 ± 19.75 min
blood flow, area under flow-time curve, versus baseline and 5 mg/kg ([2]; 10 mg/kg i.v., 10% bolus + 60 min infusion, listed as r-saxatilin): no significant difference; also recorded: restored nearly to the baseline level
reocclusion ([2]; total 5 mg/kg, bolus 10% of total dose + continuous infusion of remaining dose): no reocclusion
mean percentage of blood flow compared to baseline blood flow [2, 5]: 77.01±46.11%
time point of abrupt reocclusion [2, 5]: about 100 min
mean percentage of blood flow compared to baseline blood flow ([2]; total 5 mg/kg, double bolus injection with a half dose (2.5 mg/kg each)): 85.23±29.95%
time point of abrupt reocclusion ([2]; total 5 mg/kg, double bolus injection, after the first injection): about 50 min
time point of abrupt reocclusion ([2]; total 5 mg/kg, half dose bolus and continuous infusion of other half): about 110 min
mean percentage of blood flow compared to baseline blood flow ([2]; total 5 mg/kg, half dose bolus then continuous infusion of remaining dose for 60 min): 80.72±30.13%
bleeding in the cervical incision [3]: one animal suffered bleeding
mortality ([3]; about 90 min after bolus, total 51 animals): one animal was died from bleeding
restored blood flow (area under flow-time curve) ([4]; 20 mg/kg): 60.92±39.52%
restoration of blood flow and reocclusion ([4]; 40 mg/kg): restored to normal blood flow and maintained without reocclusion
